Here are results for 29 compounds from patent US12649751B2 (Arcus Biosciences, Inc., priority 2022, dated 2026).

Molecules are shown by their SMILES. Some results are limits rather than exact numbers.

The target in this experiment is HPK1 (Homo sapiens, UniProt Q92918). Kind of experiment: HPK1 Biochemical Assay (ADP-Glo luminescence; low ATP 10 μM or high ATP 200 μM). As to conditions: 2 nM HPK1, 10 μM ATP; read-out: Biochemical Potency (low ATP). On the technique in general: In ADP-Glo the light output rises with the ADP produced.
HPK1, sequence (Q92918 whole entry, species assumed): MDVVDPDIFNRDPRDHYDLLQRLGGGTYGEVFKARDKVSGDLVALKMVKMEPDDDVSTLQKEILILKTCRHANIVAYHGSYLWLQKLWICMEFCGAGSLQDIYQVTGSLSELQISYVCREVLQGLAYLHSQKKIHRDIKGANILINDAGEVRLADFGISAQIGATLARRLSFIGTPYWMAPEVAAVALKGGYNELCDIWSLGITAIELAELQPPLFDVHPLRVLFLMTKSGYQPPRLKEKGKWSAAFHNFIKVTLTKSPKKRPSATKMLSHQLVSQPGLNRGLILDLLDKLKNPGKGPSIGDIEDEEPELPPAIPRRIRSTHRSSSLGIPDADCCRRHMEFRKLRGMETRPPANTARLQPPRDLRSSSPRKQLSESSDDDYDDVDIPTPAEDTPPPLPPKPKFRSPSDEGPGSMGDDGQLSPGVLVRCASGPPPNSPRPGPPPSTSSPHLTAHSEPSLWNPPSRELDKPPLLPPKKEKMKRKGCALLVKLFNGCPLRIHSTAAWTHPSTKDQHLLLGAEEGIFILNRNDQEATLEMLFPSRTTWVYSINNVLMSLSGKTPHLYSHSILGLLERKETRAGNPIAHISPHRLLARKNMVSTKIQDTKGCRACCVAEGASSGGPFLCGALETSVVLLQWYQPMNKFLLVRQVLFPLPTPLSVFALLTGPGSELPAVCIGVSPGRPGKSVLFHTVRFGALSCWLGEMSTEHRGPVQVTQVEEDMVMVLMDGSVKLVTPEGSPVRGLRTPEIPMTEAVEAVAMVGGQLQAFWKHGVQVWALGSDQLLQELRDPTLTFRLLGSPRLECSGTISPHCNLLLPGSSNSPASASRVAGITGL
`Cc1cccnc1-c1nc2cc(Nc3ccc(C4CCOCC4)c(CN4CC[C@@H](F)C4)n3)ncc2s1` [Example 213, 6-{[(3R)-3-Fluoropyrrolidin-1-yl]methyl}-N-[2-(3-methylpyridin-2-yl)-[1,3]thiazolo[5,4-c]pyridin-6-yl]-5-(oxan-4-yl)pyridin-2-amine]: the IC50 was less than 100 nM. Take `Cc1cccnc1-c1nc2cc(Nc3ccc(C4CCOCC4)c(CN[C@@H]4CCOC4)n3)ncc2s1` [Example 215, N-[2-(3-Methylpyridin-2-yl)-[1,3]thiazolo[5,4-c]pyridin-6-yl]-5-(oxan-4-yl)-6-({[(3R)-oxolan-3-yl]amino}methyl)pyridin-2-amine]: the IC50 is less than 100 nM. With `FC1(F)CCN(Cc2nc(Nc3cc4nc(-c5ccncc5)sc4cn3)ccc2C2CCOCC2)C1` [Example 218, 6-[(3,3-Difluoropyrrolidin-1-yl)methyl]-5-(oxan-4-yl)-N-[2-(pyridin-4-yl)-[1,3]thiazolo[5,4-c]pyridin-6-yl]pyridin-2-amine] the figure was less than 100 nM. For `c1cc(-c2nc3cc(Nc4ccc(C5CCOCC5)c(CN5CCOCC5)n4)ncc3s2)ccn1` [Example 219, 6-[(Morpholin-4-yl)methyl]-5-(oxan-4-yl)-N-[2-(pyridin-4-yl)-[1,3]thiazolo[5,4-c]pyridin-6-yl]pyridin-2-amine] the value was less than 100 nM; for `Cc1ccc(-c2nc3cc(Nc4ccc(C5CCOCC5)c(CN5CCCC5)n4)ncc3s2)cn1` [Example 222, N-[2-(6-Methylpyridin-3-yl)-[1,3]thiazolo[5,4-c]291yridine-6-yl]-5-(oxan-4-yl)-6-[(291yridine291ne-1-yl)methyl]291yridine-2-amine], less than 100 nM. With `Fc1ccc(-c2nc3cc(Nc4ccc(C5CCOCC5)c(CN5CCCC5)n4)ncc3s2)cc1` [Example 223] the figure was less than 100 nM; with `Cc1cccnc1-c1nc2cc(Nc3ccc(C(C)C)c(CN4CCCC4)n3)ncc2s1` [Example 226, N-[2-(3-Methylpyridin-2-yl)-[1,3]thiazolo[5,4-c]pyridin-6-yl]-5-(propan-2-yl)-6-[(pyrrolidin-1-yl)methyl]pyridin-2-amine], less than 100 nM; with `CC(C)c1ccc(Nc2cc3nc(-n4cccn4)sc3cn2)nc1CN1CCCC1` [Example 228, 5-(Propan-2-yl)-N-[2-(1H-pyrazol-1-yl)-[1,3]thiazolo[5,4-c]pyridin-6-yl]-6-[(pyrrolidin-1-yl)methyl]pyridin-2-amine], less than 100 nM. In the case of `C[C@@H]1CCCN1c1nc2cc(Nc3ccc(C4CCOCC4)c(CN4CCCC4)n3)ncc2s1` [Example 229, N-{2-[(2R)-2-Methylpyrrolidin-1-yl]-[1,3]thiazolo[5,4-c]pyridin-6-yl}-5-(oxan-4-yl)-6-[(pyrrolidin-1-yl)methyl]pyridin-2-amine], the IC50 was in the range of 100 to 1000 nM. With `C[C@H]1CCCN1c1nc2cc(Nc3ccc(C4CCOCC4)c(CN4CCCC4)n3)ncc2s1` [Example 230, N-{2-[(2S)-2-Methylpyrrolidin-1-yl]-[1,3]thiazolo[5,4-c]pyridin-6-yl}-5-(oxan-4-yl)-6-[(pyrrolidin-1-yl)methyl]pyridin-2-amine] the figure was less than 100 nM; with `c1cc(C2CCOCC2)c(CN2CCCC2)nc1Nc1cc2nc(N3CCCC3)sc2cn1` [Example 231, 5-(Oxan-4-yl)-N-[2-(pyrrolidin-1-yl)-[1,3]thiazolo[5,4-c]pyridin-6-yl]-6-[(pyrrolidin-1-yl)methyl]pyridin-2-amine], 100 to 1000 nM; with `c1cc(C2CCOCC2)c(CN2CCCC2)nc1Nc1cc2nc(N3CCCCC3)sc2cn1` [Example 232, 5-(Oxan-4-yl)-N-[2-(piperidin-1-yl)-[1,3]thiazolo[5,4-c]pyridin-6-yl]-6-[(pyrrolidin-1-yl)methyl]pyridin-2-amine], less than 100 nM.

Turning to `O[C@H]1CCN(c2nc3cc(Nc4ccc(C5CCOCC5)c(CN5CCCC5)n4)ncc3s2)C1` [Example 233, (3S)-1-(6-{[5-(Oxan-4-yl)-6-[(pyrrolidin-1-yl)methyl]pyridin-2-yl]amino}-[1,3]thiazolo[5,4-c]pyridin-2-yl)pyrrolidin-3-ol], the IC50 is 100 to 1000 nM. With `O[C@@H]1CCN(c2nc3cc(Nc4ccc(C5CCOCC5)c(CN5CCCC5)n4)ncc3s2)C1` [Example 234, (3R)-1-(6-{[5-(Oxan-4-yl)-6-[(pyrrolidin-1-yl)methyl]pyridin-2-yl]amino}-[1,3]thiazolo[5,4-c]pyridin-2-yl)pyrrolidin-3-ol] the figure was 100 to 1000 nM; with `C[C@H]1CCCCN1c1nc2cc(Nc3ccc(C4CCOCC4)c(CN4CCCC4)n3)ncc2s1` [Example 236, N-{2-[(2S)-2-Methylpiperidin-1-yl]-[1,3]thiazolo[5,4-c]pyridin-6-yl}-5-(oxan-4-yl)-6-[(pyrrolidin-1-yl)methyl]pyridin-2-amine], less than 100 nM. For `c1cc(C2CCOCC2)c(CN2CCCC2)nc1Nc1cc2nc(N3C4COCC3C4)sc2cn1` [Example 237, N-(2-{3-Oxa-6-azabicyclo[3.1.1]heptan-6-yl}-[1,3]thiazolo[5,4-c]pyridin-6-yl)-5-(oxan-4-yl)-6-[(pyrrolidin-1-yl)methyl]pyridin-2-amine] the value was less than 100 nM; for `c1cc(C2CCOCC2)c(CN2CCCC2)nc1Nc1cc2nc(N3C[C@H]4C[C@@H]3CO4)sc2cn1` [Example 238, N-{2-[(1R,4R)-2-Oxa-5-azabicyclo[2.2.1]heptan-5-yl]-[1,3]thiazolo[5,4-c]pyridin-6-yl}-5-(oxan-4-yl)-6-[(pyrrolidin-1-yl)methyl]pyridin-2-amine], 100 to 1000 nM. With `Cc1nccn1-c1nc2cc(Nc3ccc(C4CCOCC4)c(CN4CCCC4)n3)ncc2s1` [Example 239, N-[2-(2-Methyl-1H-imidazol-1-yl)-[1,3]thiazolo[5,4-c]pyridin-6-yl]-5-(oxan-4-yl)-6-[(pyrrolidin-1-yl)methyl]pyridin-2-amine] the figure was less than 100 nM. For `Cc1cccnc1-c1nc2cc(Nc3nccc(N4C[C@@H]5C[C@H]4CN5)n3)ncc2s1` [Example 240, 4-[(1S,4S)-2,5-Diazabicyclo[2.2.1]heptan-2-yl]-N-[2-(3-methylpyridin-2-yl)-[1,3]thiazolo[5,4-c]pyridin-6-yl]pyrimidin-2-amine], the IC50 lay in the range of 100 to 1000 nM. For `c1cc(-c2nc3cc(Nc4nccc(N5C[C@@H]6C[C@H]5CN6)n4)ncc3s2)ccn1` [Example 241, 4-[(1S,4S)-2,5-Diazabicyclo[2.2.1]heptan-2-yl]-N-[2-(pyridin-4-yl)-[1,3]thiazolo[5,4-c]pyridin-6-yl]pyrimidin-2-amine] the value was less than 100 nM; for `Cc1cccnc1-c1nc2cc(Nc3nccc(N4C[C@@H](N)C[C@H]4CO)n3)ncc2s1` [Example 242, [(2S,4S)-4-amino-1-(2-{[2-(3-Methylpyridin-2-yl)-[1,3]thiazolo[5,4-c]pyridin-6-yl]amino}pyrimidin-4-yl)pyrrolidin-2-yl]methanol], 100 to 1000 nM; for `CN(C)C(=O)c1cccc(-c2nc3cc(Nc4nccc(N5C[C@@H]6C[C@H]5CN6C)n4)ncc3s2)c1` [Example 243, N,N-Dimethyl-3-[6-({4-[(1S,4S)-5-methyl-2,5-diazabicyclo[2.2.1]heptan-2-yl]pyrimidin-2-yl}amino)-[1,3]thiazolo[5,4-c]pyridin-2-yl]benzamide], 100 to 1000 nM.

Turning to `CN1C[C@@H]2C[C@H]1CN2c1ccnc(Nc2cc3nc(-c4cccc(S(C)(=O)=O)c4)sc3cn2)n1` [Example 244, N-[2-(3-Methanesulfonylphenyl)-[1,3]thiazolo[5,4-c]pyridin-6-yl]-4-[(1S,4S)-5-methyl-2,5-diazabicyclo[2.2.1]heptan-2-yl]pyrimidin-2-amine], the IC50 was in the range of 100 to 1000 nM.

For the compound `CN1C[C@@H]2C[C@H]1CN2c1ccnc(Nc2cc3nc(-c4cccc(C(=O)N5CCCC5)c4)sc3cn2)n1` [Example 245, 4-[(1S,4S)-5-Methyl-2,5-diazabicyclo[2.2.1]heptan-2-yl]-N-{2-[3-(pyrrolidine-1-carbonyl)phenyl]-[1,3]thiazolo[5,4-c]pyridin-6-yl}pyrimidin-2-amine], the IC50 lay within 100 to 1000 nM. With `Cc1cccnc1-c1nc2cc(Nc3ccc(C4CCOCC4)c(N4C[C@@H]5C[C@H]4CN5)n3)ncc2s1` [Example 246, 6-[(1S,4S)-2,5-Diazabicyclo[2.2.1]heptan-2-yl]-N-[2-(3-methylpyridin-2-yl)-[1,3]thiazolo[5,4-c]pyridin-6-yl]-5-(oxan-4-yl)pyridin-2-amine] the figure was less than 100 nM; with `Cc1cccnc1-c1nc2cc(Nc3ccc(C4CCOCC4)c(N4C[C@@H]5C[C@H]4CN5C)n3)ncc2s1` [Example 247, 6-[(1S,4S)-5-Methyl-2,5-diazabicyclo[2.2.1]heptan-2-yl]-N-[2-(3-methylpyridin-2-yl)-[1,3]thiazolo[5,4-c]pyridin-6-yl]-5-(oxan-4-yl)pyridin-2-amine], less than 100 nM; with `Cc1cccnc1-c1nc2cc(Nc3cc(C4CCOCC4)nc(N4C[C@@H]5C[C@H]4CN5)n3)ncc2s1` [Example 250, 2-[(1S,4S)-2,5-Diazabicyclo[2.2.1]heptan-2-yl]-N-[2-(3-methylpyridin-2-yl)-[1,3]thiazolo[5,4-c]pyridin-6-yl]-6-(oxan-4-yl)pyrimidin-4-amine], less than 100 nM. For `Cc1cccnc1-c1nc2cc(Nc3ccc(C4CCOCC4)c(NCc4nccn4C)n3)ncc2s1` [Example 251, N2-[(1-Methyl-1H-imidazol-2-yl)methyl]-N6-[2-(3-methylpyridin-2-yl)-[1,3]thiazolo[5,4-c]pyridin-6-yl]-3-(oxan-4-yl)pyridine-2,6-diamine] the value was less than 100 nM; for `CN1C[C@@H]2C[C@H]1CN2c1cncc(Nc2cc3nc(-c4ccnc(N5CC[C@@H](O)C5)c4)sc3cn2)n1` [Example 263, (3R)-1-{4-[6-({6-[(1S,4S)-5-Methyl-2,5-diazabicyclo[2.2.1]heptan-2-yl]pyrazin-2-yl}amino)-[1,3]thiazolo[5,4-c]pyridin-2-yl]pyridin-2-yl}pyrrolidin-3-ol], less than 100 nM.
